Assay in all cases: DTP human tumour cell line panel, 48 h
Assay [1] has as its system A498.
The subject of assay [2] is HCC 2998.
The subject of assay [3] is HCT-15.
Assay [4] concerns HOP-92.
Assay [5] deals with IGROV-1.
The test system of assay [6] is K562.
Assay [7] relates to NCI-H23.
The subject of assay [8] is NCI-H460.
Assay [9] has as its system NCI-H522.
Assay [10] has as its system NCI/ADR-RES.
In assay [11] the test system is OVCAR-8.
Assay [12] has as its system PC-3.
In assay [13] the test system is SK-MEL-28.
For assay [14], the system named is SR.
For assay [15], the system named is T47D.
The test system of assay [16] is HL-60.
Assay [17] has as its system RPMI-8226.
The subject of assay [18] is SK-MEL-5.
For assay [19], the system named is UO-31.

This is an account of results in ChEMBL document CHEMBL1201862, “PubChem BioAssay data set” (2004).

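Compound exposure: 48 hours, 5 concentrations, 96-well plates. At the GI50, growth is halved.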 Active and inactive are the calls of the source. No stated cut-off is given here; in the data, active = GI50 up to about 1.1 µM and inactive = higher.

In the case of `CCOC(=O)c1c(SC(=O)/C=C/c2ccccc2)n(-c2ccccc2)c(=S)n(-c2ccccc2)c1=O`, the GI50 is > 100 µM (inactive) in [1]; > 100 µM (inactive) in assay [2]; more than 100 µM in [3]; > 100 µM (inactive) in assay [4]; > 100 µM (inactive) in [5]; > 100 µM (inactive) in assay [6]. Besides, the GI50 in assay [7], in [8], in [9], in assay [10], in assay [11] and in [12] was > 100 µM (inactive) each time. Besides, the GI50 in [13], in [14] and in assay [15] was > 100 µM (inactive) each time.

Regarding `BrCCCCCOc1ccc(-c2c3ccccc3c(-c3ccc(OCCCCCBr)cc3)c3ccccc23)cc1`, the GI50 in assay [2] is > 100 µM (inactive); in [3] it was more than 100 µM; in assay [16], > 100 µM (inactive); in [5], > 100 µM (inactive); in assay [6] it was > 100 µM (inactive); in assay [8], > 100 µM (inactive). The GI50 in assay [10], in assay [11], in assay [12], in assay [17], in assay [13] and in [18] was > 100 µM (inactive) in each case. For the same compound, the GI50 in assay [14], in assay [15] and in assay [19] was > 100 µM (inactive) throughout.

Regarding `COc1ccc2[nH]c(CCNC(=O)c3cc([N+](=O)[O-])cc([N+](=O)[O-])c3)cc2c1`, the GI50 in assay [1] is > 100 µM (inactive); in [3] it was more than 100 µM; in assay [16] it was > 100 µM (inactive); in assay [4] it was 21.2 µM (inactive); in [5], 26.5 µM (inactive); in assay [6] it was > 100 µM (inactive). In addition, the GI50 is 47.9 µM (inactive) in [7]; > 100 µM (inactive) in [8]; > 100 µM (inactive) in [10]; 44.5 µM (inactive) in assay [11]; > 100 µM (inactive) in [12]; > 100 µM (inactive) in assay [17]. The GI50 is > 100 µM (inactive) in [13]; > 100 µM (inactive) in assay [18]; > 100 µM (inactive) in [14]; 29.9 µM (inactive) in [15]; > 100 µM (inactive) in [19].

With `Cc1cc(C)nc(NS(=O)(=O)c2ccc(NNc3c4ccccc4nc4c(C(=O)Nc5ccc(S(=O)(=O)Nc6cc(C)on6)cc5)cccc34)cc2)n1`, the GI50 was 23.2 µM (inactive) in assay [2]; 51.1 µM in [3]; 30.8 µM (inactive) in assay [16]; 23.7 µM (inactive) in assay [4]; 29 µM (inactive) in assay [5]; 34.5 µM (inactive) in assay [6]. For the same compound, the GI50 in assay [7] is 46.8 µM (inactive); in assay [8] it was 40.9 µM (inactive); in assay [9], 28.2 µM (inactive); in assay [10], > 100 µM (inactive); in assay [11], 35.6 µM (inactive); in [12] it was 34.8 µM (inactive). For the same compound, the GI50 is 42.9 µM (inactive) in assay [17]; 31.3 µM (inactive) in [18]; 24.9 µM (inactive) in assay [14]; 33.5 µM (inactive) in assay [15]; 34.7 µM (inactive) in [19].

`Cc1ccc(C)n1-n1c(-c2ccccc2)n[nH]c1=O`: the GI50 in assay [1] was > 100 µM (inactive); in assay [2], 87.7 µM (inactive); in assay [3], more than 100 µM; in [5], > 100 µM (inactive); in assay [6], 53.7 µM (inactive); in assay [8], > 100 µM (inactive). Besides, the GI50 in [9], in [10], in assay [11], in assay [12], in assay [17] and in assay [13] was > 100 µM (inactive) throughout. For the same compound, the GI50 in assay [18] is > 100 µM (inactive); in assay [14] it was 51.9 µM (inactive); in assay [15], > 100 µM (inactive); in [19], > 100 µM (inactive).

Take `OCCSCCCSCCO`: the GI50 in [2] is > 100 µM (inactive); in assay [3] it was more than 100 µM; in [16], 30.7 µM (inactive); in assay [4], 27.1 µM (inactive); in assay [5], > 100 µM (inactive); in assay [6], > 100 µM (inactive). Further, the GI50 in assay [7] was > 100 µM (inactive); in [8] it was 34.8 µM (inactive); in [9] it was > 100 µM (inactive); in [10], > 100 µM (inactive); in assay [11] it was > 100 µM (inactive); in assay [12] it was > 100 µM (inactive). Also, the GI50 in assay [13] is > 100 µM (inactive); in assay [18] it was > 100 µM (inactive); in [14], 39.9 µM (inactive); in [15] it was > 100 µM (inactive); in [19], > 100 µM (inactive).

With `CCOC(=O)c1cn(CC)c(=O)n2c1nc1ccccc12`, the GI50 in assay [1] is 32.4 µM (inactive); in [2], 96.8 µM (inactive); in assay [3], 40.2 µM; in [4], 30.1 µM (inactive); in [5], 33.3 µM (inactive); in [6] it was 42.1 µM (inactive). The GI50 is 55.7 µM (inactive) in assay [7]; 35.4 µM (inactive) in assay [8]; 62.5 µM (inactive) in [10]; 38.3 µM (inactive) in [11]; > 100 µM (inactive) in assay [12]; 24.4 µM (inactive) in assay [17]. Moreover, the GI50 in [13] was > 100 µM (inactive); in [18] it was 49.8 µM (inactive); in assay [14] it was 28.4 µM (inactive); in assay [15], 63.5 µM (inactive); in [19], 3.48 µM (inactive).

In the case of `O=c1[nH]c(=O)n(C2CC(O)C(CO)O2)c2nc3cc4ccccc4cc3nc12` (configuration not stated), the GI50 in [1] is > 100 µM (inactive); in assay [2] it was > 100 µM (inactive); in [3] it was more than 100 µM; in assay [4] it was 79.1 µM (inactive); in [5] it was 98.4 µM (inactive); in [6] it was > 100 µM (inactive). The GI50 in [7] is > 100 µM (inactive); in assay [8], > 100 µM (inactive); in [9], > 100 µM (inactive); in [10] it was > 100 µM (inactive); in assay [11], 54.3 µM (inactive); in [12] it was > 100 µM (inactive). Moreover, the GI50 was > 100 µM (inactive) in assay [17]; > 100 µM (inactive) in [13]; > 100 µM (inactive) in assay [18]; 91.6 µM (inactive) in assay [14]; > 100 µM (inactive) in assay [15]; > 100 µM (inactive) in assay [19].

Regarding `O=c1oc2c(ccc3ccccc32)cc1C1=CSC2=NCCN12`, the GI50 was 3.82 µM (inactive) in assay [2]; 38.4 µM in assay [3]; 34.7 µM (inactive) in [16]; 24.4 µM (inactive) in assay [4]; 32.7 µM (inactive) in assay [5]; 33.4 µM (inactive) in [6]. Further, the GI50 is 53.8 µM (inactive) in assay [7]; 36.7 µM (inactive) in [8]; 30.3 µM (inactive) in assay [9]; 75.2 µM (inactive) in [10]; 54.7 µM (inactive) in assay [11]; 71.4 µM (inactive) in [12]. Also, the GI50 in assay [17] is 42.6 µM (inactive); in [13], 35.2 µM (inactive); in [18], 46.3 µM (inactive); in assay [14], 34.4 µM (inactive); in assay [15], 30.5 µM (inactive); in [19], 23.3 µM (inactive).

As to `COC(=O)CC1c2ccccc2N2C(=O)Cc3c([nH]c4ccccc34)C12` (configuration not stated), the GI50 is > 100 µM (inactive) in assay [1]; > 100 µM (inactive) in [2]; more than 100 µM in [3]; 55.8 µM (inactive) in [4]; > 100 µM (inactive) in assay [5]; 35.8 µM (inactive) in [6]. Moreover, the GI50 in assay [7], in assay [8], in [9], in assay [10], in assay [11] and in assay [12] was > 100 µM (inactive) throughout. Also, the GI50 in [17], in [13], in assay [18], in assay [14], in [15] and in assay [19] was > 100 µM (inactive) in each case.

On to `O=[N+]([O-])c1cccc(-c2ncc3c(n2)-c2ccccc2C3)c1`, for which the concentration for 50% growth inhibition (GI50) in [3] is more than 100 µM; in assay [16], > 100 µM (inactive); in [4], > 100 µM (inactive); in assay [5], 53.2 µM (inactive); in [6] it was > 100 µM (inactive); in [7], > 100 µM (inactive). For the same compound, the GI50 in [8] is > 100 µM (inactive); in assay [9], 24.7 µM (inactive); in assay [10] it was > 100 µM (inactive); in [11], > 100 µM (inactive); in assay [12] it was > 100 µM (inactive); in assay [17] it was > 100 µM (inactive). The GI50 in assay [13], in assay [18], in assay [14], in assay [15] and in assay [19] was > 100 µM (inactive) in each case.

In the case of `Cc1[nH]n(C2=NCCN2)c(=O)c1Cc1ccccc1`, the GI50 was > 100 µM (inactive) in [1]; more than 100 µM in [3]; > 100 µM (inactive) in assay [16]; > 100 µM (inactive) in [4]; > 100 µM (inactive) in [5]; > 100 µM (inactive) in [6]. Moreover, the GI50 in assay [7], in assay [8], in assay [9], in assay [10], in assay [11] and in assay [12] was > 100 µM (inactive) each time. Also, the GI50 in assay [17], in assay [18], in assay [14], in [15] and in assay [19] was > 100 µM (inactive) throughout.

As a reminder, the GI50 is the concentration that inhibits growth by half.
